The target in data set [1] is Sonic hedgehog protein (Mus musculus) (UniProt Q62226). Briefly: Inhibition of SHH in mouse Ptch deffective MEF cells after 30 hrs by Gli-responsive beta-galactosidse reporter gene assay. The data set is classed as cell-based.
Data set [2] has the same target. Kind of data set: Inhibition of SHH in mouse Shh Light2 cells after 30 hrs by GLI-responsive bright glo luciferase reporter gene assay relative to 6 uM cyclopamine. The data set is classed as functional, cell-based. The following applies: Shh Light II. A general note: Reporter assays use an easily measured gene product as a stand-in for the process of interest.
Data set [3] can be described thus: Cytotoxicity against mouse Shh Light2 cells by cell titer glo assay. The data set is classed as cell-based. Conditions: shh light ii. (In general: ATP-based viability assays read luminescence as a measure of living cells.)
Data set [4] concerns the target Sonic hedgehog protein (Homo sapiens, UniProt Q15465). Briefly: Binding affinity to recombinant Shh N-terminal peptide by surface plasma resonance.
In data set [5] the target is Sonic hedgehog protein (Mus musculus) (UniProt Q62226). Briefly: Inhibition of SHH in mouse Shh Light2 cells after 30 hrs by GLI-responsive bright glo luciferase reporter gene assay at 15.6 uM relative to 6 uM cyclopamine. The data set is classed as functional, cell-based. Conditions: Shh Light II.
Data set [6] deals with Sonic hedgehog protein (Mus musculus, UniProt Q62226). Kind of data set: (§1) Inhibition of SHH in mouse Shh Light2 cells after 30 hrs by GLI-responsive bright glo luciferase reporter gene assay. The data set is classed as functional, cell-based, Shh Light II.
Sequence of Sonic hedgehog protein (Mus musculus, UniProt Q62226) (Q62226 25-198 limits assumed): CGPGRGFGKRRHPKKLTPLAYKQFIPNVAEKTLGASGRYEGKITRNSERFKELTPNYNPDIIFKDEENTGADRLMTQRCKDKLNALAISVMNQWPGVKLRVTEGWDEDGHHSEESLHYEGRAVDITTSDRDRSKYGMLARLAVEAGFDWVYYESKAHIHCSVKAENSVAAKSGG
Data set [7] addresses Sonic hedgehog protein (Mus musculus) (UniProt Q62226). Described as §1. The following applies: Shh Light II. The data set is classed as functional, cell-based.
Data set [8] shares this target. Kind of data set: Inhibition of SHH in mouse Shh Light2 cells after 30 hrs by GLI-responsive bright glo luciferase reporter gene assay relative to cyclopamine. The data set is classed as functional, cell-based. The following applies: Shh Light II.

Calls of active or inactive are those of the source. The calls are words filed in the database; no cut-off is given here. A value given as a limit tells only on which side of the number the result lay.

Sequence of Sonic hedgehog protein (Homo sapiens, UniProt Q15465) (Q15465 24-197 limits assumed): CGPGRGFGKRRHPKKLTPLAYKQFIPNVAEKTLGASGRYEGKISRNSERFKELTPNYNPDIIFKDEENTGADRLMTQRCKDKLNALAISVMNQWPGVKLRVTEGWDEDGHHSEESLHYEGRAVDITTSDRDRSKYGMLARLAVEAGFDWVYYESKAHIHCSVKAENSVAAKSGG

Turning to `O=C(C[C@@H]1C/C=C/CCCCC(=O)OCCNC1=O)NCc1ccc(Cl)cc1`, the inhibition entry in data set [1] is “inactive”. Besides, in data set [2], the ECmax is 70%. Besides, the Activity entry is “Non-toxic” in data set [3] and “Dose-dependent effect” on Sonic hedgehog protein [4].
`O=C(C[C@H]1C/C=C/CCCC(=O)O[C@@H](c2ccccc2)CNC1=O)NCc1ccc(Cl)cc1`: in data set [1], the inhibition result is “inactive”. Further, the Activity entry in data set [3] is on record as “Non-toxic”. Moreover, at Sonic hedgehog protein [4], the Activity result is “Dose-dependent effect” and the Kd was 3.1 µM.
As for `O=C(C[C@H]1C/C=C/CCC(=O)OCCNC1=O)NCc1ccc(Cl)cc1`, the inhibition result in data set [1] is “inactive”. Besides, the ECmax in data set [2] was found to be 50%. The values for the Activity result (in data set [3]; on Sonic hedgehog protein [4]) were “Non-toxic” and “Dose-dependent effect”, respectively.
In the case of `O=C(C[C@@H]1C/C=C/CCCCC(=O)O[C@@H](c2ccccc2)CNC1=O)NCc1ccc(Cl)cc1`, in data set [1], the inhibition entry is “inactive”. Besides, the Activity in data set [3] was over 31 µM; on Sonic hedgehog protein [4], “Dose-dependent effect”.
`O=C(C[C@@H]1C/C=C/CCC(=O)O[C@@H](c2ccccc2)CNC1=O)NCc1ccc(Cl)cc1`: the inhibition entry in data set [1] is “inactive”. The compound also had an ECmax in data set [5] of 57%. Besides, the values for the Activity (in data set [3]; on Sonic hedgehog protein [4]) were over 15.6 µM and “Dose-dependent effect”, respectively.
Consider `O=C(C[C@@H]1C/C=C/CCCC(=O)O[C@@H](c2ccccc2)CNC1=O)NCc1ccc(Cl)cc1`, for which the inhibition result in data set [1] was “inactive”. Besides, the Activity entry in data set [3] is “Non-toxic”; on Sonic hedgehog protein [4], “Dose-dependent effect”.
Consider `O=C(C[C@@H]1C/C=C/CCCC(=O)O[C@H](c2ccccc2)CNC1=O)NCc1ccc(Cl)cc1`, for which the inhibition entry in data set [1] was “inactive”. For the same compound, the ECmax in data set [2] was found to be 93%. In addition, the Activity result in data set [3] was “Non-toxic”; on Sonic hedgehog protein [4], “Dose-dependent effect”.
The corresponding values for `O=C(C[C@@H]1C/C=C/CCC(=O)OCCNC1=O)NCc1ccc(Cl)cc1` are “inactive”, 55%, “Non-toxic” and “Dose-dependent effect”.
Regarding `O=C(C[C@H]1C/C=C/CCC(=O)O[C@@H](c2ccccc2)CNC1=O)NCc1ccc(Cl)cc1`, the inhibition result in data set [1] was “inactive”. The Activity result in data set [3] is “Non-toxic”; at Sonic hedgehog protein [4], “Dose-dependent effect”.
`O=C(C[C@@H]1C/C=C/CCC(=O)O[C@H](c2ccccc2)CNC1=O)NCc1ccc(Cl)cc1` [ROBOTNIKININ]: the inhibition entry in data set [1] is “inactive”. The compound further came in with a half-maximal effective concentration (EC50) at Sonic hedgehog protein [6] of 4 µM. Besides, the ECmax in data set [2] stood at 91%. The Activity result was “Non-toxic” in data set [3] and “Dose-dependent effect” on Sonic hedgehog protein [4].
On to `O=C(C[C@@H]1C/C=C/CCCC(=O)OCCNC1=O)NCc1ccc(Cl)cc1`, for which, in data set [1], the inhibition result was “inactive”. In addition, the Activity result in data set [3] was “Non-toxic”; on Sonic hedgehog protein [4] it was “Dose-dependent effect”.
With `O=C(C[C@H]1C/C=C/CCCCC(=O)OCCNC1=O)NCc1ccc(Cl)cc1`, the inhibition result in data set [1] was “inactive”. Besides, the Activity result in data set [3] is recorded as “Non-toxic”.
Consider `O=C(C[C@H]1C/C=C/CCCC(=O)OCCNC1=O)NCc1ccc(Cl)cc1`, for which, in data set [1], the inhibition entry was “inactive”. Further, the Activity entry in data set [3] is on record as “Non-toxic”.
Consider `O=C(C[C@H]1C/C=C/CCC(=O)O[C@H](c2ccccc2)CNC1=O)NCc1ccc(Cl)cc1`, for which the inhibition result in data set [1] is “inactive”. For the same compound, in data set [7], the ECmax was determined as 62.5 µM. Moreover, the Activity entry in data set [3] was “Non-toxic”; on Sonic hedgehog protein [4] it was “Dose-dependent effect”.
`O=C(C[C@H]1C/C=C/CCCC(=O)O[C@H](c2ccccc2)CNC1=O)NCc1ccc(Cl)cc1`: the inhibition result in data set [1] was “inactive”. The ECmax in data set [8] was determined as 71%. In addition, the Activity result in data set [3] was “Non-toxic”.
Take `O=C(C[C@H]1C/C=C/CCCCC(=O)O[C@@H](c2ccccc2)CNC1=O)NCc1ccc(Cl)cc1`: the inhibition result in data set [1] is “inactive”. Moreover, the Activity entry in data set [3] was “Non-toxic”.
Turning to `O=C(C[C@H]1C/C=C/CCCCC(=O)O[C@H](c2ccccc2)CNC1=O)NCc1ccc(Cl)cc1`, the inhibition result (in data set [1]; at Sonic hedgehog protein [4]) was “inactive” throughout. Moreover, in data set [3], the Activity result is “Non-toxic”.
As to `O=C(C[C@@H]1C/C=C/CCCCC(=O)O[C@H](c2ccccc2)CNC1=O)NCc1ccc(Cl)cc1`, in data set [1], the inhibition entry is “inactive”. Moreover, the Activity result in data set [3] was “Non-toxic”; at Sonic hedgehog protein [4], “Dose-dependent effect”.

One may read the Kd as the equilibrium constant for the complex coming apart. As usually defined, the EC50 is the concentration giving half of the maximal effect. Low readings indicate a more potent agent, high ones a less potent agent.
